Calls of active or inactive are those of the source. The calls are words filed in the database; no cut-off is given here.
Legend:
MDA-MB-231 [1] = assay: Cytotoxicity against human MDA-MB-231 cells assessed as cell survival at 50 uM after 48 hrs by Hoechst 33342 staining based assay relative to control; assay type: functional; settings: MDA-MB-231, 48 h, read-out: Survival
HCT-116 [2] = assay: Cytotoxicity against human HCT116 cells assessed as cell survival at 50 uM after 48 hrs by Hoechst 33342 staining based assay relative to control; assay type: functional; settings: HCT-116, 48 h, read-out: Survival
PC-3 [3] = assay: Cytotoxicity against human PC3 cells assessed as cell survival at 50 uM after 48 hrs by Hoechst 33342 staining based assay relative to control; assay type: functional; settings: PC-3, 48 h, read-out: Survival
NCI-H727 [4] = assay: Cytotoxicity against human NCI-H727 cells assessed as cell survival at 50 uM after 48 hrs by Hoechst 33342 staining based assay relative to control; assay type: functional; settings: NCI-H727, 48 h, read-out: Survival
HaCaT [5] = assay: Cytotoxicity against human HaCaT cells assessed as cell survival at 50 uM after 48 hrs by Hoechst 33342 staining based assay relative to control; assay type: functional; settings: read-out: Survival
Huh-7 [6] = assay: Cytotoxicity against human HuH7 cells assessed as cell viability after 48 hrs by Hoechst 33342 staining based assay; assay type: functional; settings: Huh-7, 48 h
MDA-MB-231 [7] = assay: Cytotoxicity against human MDA-MB-231 cells assessed as cell viability after 48 hrs by Hoechst 33342 staining based assay; assay type: functional; settings: MDA-MB-231, 48 h
HCT-116 [8] = assay: Cytotoxicity against human HCT116 cells assessed as cell viability after 48 hrs by Hoechst 33342 staining based assay; assay type: functional; settings: HCT-116, 48 h
HaCaT [9] = assay: Cytotoxicity against human HaCaT cells assessed as cell viability after 48 hrs by Hoechst 33342 staining based assay; assay type: functional
Fibroblast = assay: Cytotoxicity against human fibroblasts assessed as cell viability after 48 hrs by Hoechst 33342 staining based assay
RL = assay: Cytotoxicity against human RL assessed as cell viability after 48 hrs by Hoechst 33342 staining based assay; assay type: functional
MCF7 [10] = assay: Cytotoxicity against human MCF7 assessed as cell viability after 48 hrs by Hoechst 33342 staining based assay; assay type: functional; settings: MCF7, 48 h
[11] = Selectivity index, ratio of IC50 for human fibroblasts to IC50 for human HuH7 cells
[12] = Selectivity index, ratio of IC50 for human fibroblasts to IC50 for human Caco2 cells
[13] = Selectivity index, ratio of IC50 for human fibroblasts to IC50 for human PC3 cells
[14] = Selectivity index, ratio of IC50 for human fibroblasts to IC50 for human RL cells
MDA-MB-231 [15] = assay: Induction of apoptosis in human MDA-MB-231 cells harboring p53 mutant assessed as increase in late apoptosis at 2 times IC50 after 24 hrs by YoPro/propidium iodide/Hoechst staining based assay; assay type: functional, cell-based
PC-3 [16] = assay: Induction of apoptosis in human PC3 cells harboring p53 mutant assessed as increase in cleaved caspase3 at 2 times IC50 after 48 hrs by Hoechst staining based assay; assay type: functional, cell-based
Huh-7 [17] = assay: Cell cycle arrest in human HuH7 cells assessed as mitotic index at 10 uM measured after 48 hrs by Hoechst staining based fluorescence assay (reference value: 2.2); assay type: functional
Caco-2 [18] = assay: Cell cycle arrest in human Caco2 cells assessed as accumulation at S phase at 10 uM measured after 48 hrs by Hoechst/BrdU staining based fluorescence assay (reference value: […]); assay type: functional
MDA-MB-231 [19] = assay: Cell cycle arrest in human MDA-MB-231 cells harboring p53 mutant assessed as mitotic index at 10 uM measured after 48 hrs by Hoechst staining based fluorescence assay (reference value: 2.1); assay type: functional
MDA-MB-231 [20] = assay: Cell cycle arrest in human MDA-MB-231 cells harboring p53 mutant assessed as accumulation at S phase at 10 uM measured after 48 hrs by Hoechst/BrdU staining based fluorescence assay (reference value: 42.2%); assay type: functional
HCT-116 [21] = assay: Cell cycle arrest in human HCT116 cells harboring wild-type p53 assessed as accumulation at S phase at 10 uM measured after 48 hrs by Hoechst/BrdU staining based fluorescence assay (reference value: 68.4%); assay type: functional
NCI-H727 [22] = assay: Cell cycle arrest in human NCI-H727 cells harboring p53 mutant assessed as accumulation at S phase at 10 uM measured after 48 hrs by Hoechst/BrdU staining based fluorescence assay (reference value: 40.3%); assay type: functional
HaCaT [23] = assay: Cell cycle arrest in human HaCaT cells harboring […] p53 assessed as mitotic index at 10 uM measured after 48 hrs by Hoechst staining based fluorescence assay (reference value: 2.6); assay type: functional
HaCaT [24] = assay: Cell cycle arrest in human HaCaT cells harboring […] p53 assessed as accumulation at S phase at 10 uM measured after 48 hrs by Hoechst/BrdU staining based fluorescence assay (reference value: 52.3%); assay type: functional
Caco-2 [25] = assay: Cell cycle arrest in human Caco2 cells assessed as accumulation at S phase at 25 uM measured after 48 hrs by Hoechst/BrdU staining based fluorescence assay (reference value: […]); assay type: functional
HCT-116 [26] = assay: Cell cycle arrest in human HCT116 cells harboring wild-type p53 assessed as mitotic index at 25 uM measured after 48 hrs by Hoechst staining based fluorescence assay (reference value: 2.3); assay type: functional
HCT-116 [27] = assay: Cell cycle arrest in human HCT116 cells harboring wild-type p53 assessed as accumulation at S phase at 25 uM measured after 48 hrs by Hoechst/BrdU staining based fluorescence assay (reference value: 68.4%); assay type: functional
PC-3 [28] = assay: Cell cycle arrest in human PC3 cells harboring p53 mutant assessed as mitotic index at 25 uM measured after 48 hrs by Hoechst staining based fluorescence assay (reference value: 2.5); assay type: functional
PC-3 [29] = assay: Cell cycle arrest in human PC3 cells harboring p53 mutant assessed as accumulation at S phase at 25 uM measured after 48 hrs by Hoechst/BrdU staining based fluorescence assay (reference value: 40.8%); assay type: functional
NCI-H727 [30] = assay: Cell cycle arrest in human NCI-H727 cells harboring p53 mutant assessed as mitotic index at 25 uM measured after 48 hrs by Hoechst staining based fluorescence assay (reference value: 1.1); assay type: functional
NCI-H727 [31] = assay: Cell cycle arrest in human NCI-H727 cells harboring p53 mutant assessed as accumulation at S phase at 25 uM measured after 48 hrs by Hoechst/BrdU staining based fluorescence assay (reference value: 40.3%); assay type: functional
Caco-2 [32] = assay: Cell cycle arrest in human Caco2 cells assessed as accumulation at M phase by Hoechst staining based fluorescence assay; assay type: functional
NCI-H727 [33] = assay: Cell cycle arrest in human NCI-H727 cells assessed as accumulation at G1/S phase by Hoechst staining based fluorescence assay; assay type: functional
HCT-116 [34] = assay: Induction of apoptosis in human HCT116 cells harboring wild-type p53 assessed as upregulation of p21 measured after 48 hrs by Hoechst staining based fluorescence assay; assay type: functional, cell-based
MCF7 [35] = assay: Induction of apoptosis in human MCF7 cells harboring wild-type p53 assessed as upregulation of p21 measured after 48 hrs by Hoechst staining based fluorescence assay; assay type: functional, cell-based
HCT-116 [36] = assay: Induction of apoptosis in human HCT116 cells harboring wild-type p53 assessed as upregulation of cyclinB1 measured after 48 hrs by Hoechst staining based assay; assay type: functional, cell-based

SMILES | viability at 50 µM (MDA-MB-231 [1]) [%] | viability at 50 µM (HCT-116 [2]) [%] | viability at 50 µM (PC-3 [3]) [%] | viability at 50 µM (NCI-H727 [4]) [%] | viability at 50 µM (HaCaT [5]) [%] | IC50 (Huh-7 [6]) [µM] | IC50 (MDA-MB-231 [7]) [µM] | IC50 (HCT-116 [8]) [µM] | IC50 (HaCaT [9]) [µM] | IC50 (Fibroblast) [µM] | IC50 (RL) [µM] | IC50 (MCF7 [10]) [µM] | Ratio IC50 [12] | Ratio IC50 [13] | Ratio IC50 [14] | Activity (PC-3 [16]) | Activity (Caco-2 [18]) [%] | Activity (MDA-MB-231 [20]) | Activity (HCT-116 [21]) [%] | Activity (NCI-H727 [22]) | also measured
COc1cccc(/C=C/C(=O)c2c(O)cc(OC)cc2OC)c1 | 11 | 0 | 22 | 1 | 7 | 15 | 13.2 | 7.7 | 10.4 | > 20 | 9 | 10.3 | 2.4 | 3.7 | 3 | Active | 31 | 54% | 30 | 35% | Ratio IC50 [11]: 1.8; Activity (MDA-MB-231 [15]): Active; Activity_index (Huh-7 [17]): 1.6; Activity_index (MDA-MB-231 [19]): 4.2; Activity_index (HaCaT [23]): 2.6; Activity (HaCaT [24]): 49%; Activity (Caco-2 [25]): 34%; Activity_index (HCT-116 [26]): 0.3; Activity (HCT-116 [27]): 37%; Activity_index (PC-3 [28]): 0.4; Activity (PC-3 [29]): 9.4%; Activity_index (NCI-H727 [30]): 0.1; Activity (NCI-H727 [31]): 1.4%; Activity (Caco-2 [32]): Active; Activity (NCI-H727 [33]): Active; Activity (HCT-116 [34]): Active; Activity (MCF7 [35]): Active; Activity (HCT-116 [36]): Active
COc1cc(O)c(C(=O)/C=C/c2ccccc2)c(OC)c1 [FLAVOKAWAIN B] | 19 | 0 | 27 | 2 | 7 | 15.9 | 16.3 | 7.5 | 13.6 | > 20 | 8.2 | 15.5 | 2.7 | 2.9 | 3.2 | Active | 42 | 54% | 37 | 39% | Ratio IC50 [11]: 1.7; Activity (MDA-MB-231 [15]): Active; Activity_index (Huh-7 [17]): 2.2; Activity_index (MDA-MB-231 [19]): 5.2; Activity_index (HaCaT [23]): 3.4; Activity (HaCaT [24]): 50%; Activity (Caco-2 [25]): 40%; Activity_index (HCT-116 [26]): 0.6; Activity (HCT-116 [27]): 28%; Activity_index (PC-3 [28]): 2; Activity (PC-3 [29]): 20%; Activity_index (NCI-H727 [30]): 0.2; Activity (NCI-H727 [31]): 7%; Activity (Caco-2 [32]): Active; Activity (NCI-H727 [33]): Active; Activity (HCT-116 [34]): Active; Activity (MCF7 [35]): Active; Activity (HCT-116 [36]): Active
COc1cc(O)c(C(=O)/C=C/c2ccc(F)cc2)c(OC)c1 | 69 | 25 | 56 | 54 | 36 | > 20 | > 20 | 12.4 | > 20 | > 20 | 5.4 | 8.8 | >5.4 | >3.8 | >5.4 | Active | 49 | inactive | 59 | inactive | Activity (Huh-7 [17]): inactive; Activity (MDA-MB-231 [19]): inactive; Activity (HaCaT [23]): inactive; Activity (HaCaT [24]): inactive; Activity (Caco-2 [25]): 30%; Activity_index (HCT-116 [26]): 0.7; Activity (HCT-116 [27]): 28%; Activity_index (PC-3 [28]): 5.3; Activity (PC-3 [29]): 34%; Activity (NCI-H727 [30]): inactive; Activity (NCI-H727 [31]): inactive; Activity (Caco-2 [32]): Active; Activity (HCT-116 [34]): Active; Activity (MCF7 [35]): Active; Activity (HCT-116 [36]): Active

From ChEMBL document CHEMBL3992552, “Mechanisms of action and structure-activity relationships of cytotoxic flavokawain derivatives” (Bioorg Med Chem, 2017)
